Here are results for one molecule from patent US10799522B2, “Compositions and methods relating to galectin detection” (Wayne State University, priority 2015, dated 2020).

Structures are written as SMILES.

The data set relates to orthotopic human breast carcinoma xenograft (MCF10DCIS). Kind of data set: dynamic PET/CT imaging, pharmacokinetics and biodistribution in tumor-bearing mice. Format: in vivo, immunedeficient nu/nu mice. As to the method: A single (unilateral) orthotopic breast carcinoma xenograft was established in immunedeficient nu/nu mice by injection of human breast ductal carcinoma in situ cells (MCF10DCIS) in Matrigel into one of the upper mammary fat pad.
Tumor-bearing mice (˜20-25 g) were anesthetized using inhalation of 2% isoflurane in oxygen, and their body temperature maintained at 38° C. by a heating pad with a feedback temperature control. […] Dynamic PET images were acquired in list-mode and reconstructed using OSEM algorithm at multiple time frames post radiotracer administration (0-2, 2-4, 4-6, 6-8, 8-10, 10-20, 20-30, 30-40, 40-50, 50-60 min). Thereafter, while still fixed to the positioning bed, the mice were moved with the bed into the gantry of INVEON SPECT/CT (Siemens), and CT images were acquired over the whole body area for attenuation correction of PET images and for production of PET/CT images. PET/CT fusion images were generated and analyzed in a similar manner as when studying rats.

Where [1] appears, read: tumor-bearing mice, i.v., bi-exponential clearance from the blood.
Where [2] appears, read: tumor-bearing mice, mono-exponential kinetics.

With `OCC1OC(SC2OC(CO)C(O)C(n3cc(-c4cccc([18F])c4)nn3)C2O)C(O)C(n2cc(-c3cccc(F)c3)nn2)C1O` [[^18F]FPTDG, 3-(3-[^18F]fluorophenyltriazolyl)-3-deoxy-3′-(3-fluorophenyltriazolyl)-3′-deoxy-1-thio-β-D-digalactopyranoside], under “20 to 60 min post i.v. injection”, the “retention in MCF10DCIS xenografts” value is listed as “significant retention”. For the same molecule, the “accumulation of radioactivity in normal mammary fat pads” value (mice, PET/CT) is listed as “no accumulation of radioactivity was detectable”. Under “mice, i.v.”, the “accumulation or retention of radioactivity in the lungs, muscles, and other organs and tissues” value is reported as “extremely low”; the “crossing of the blood-brain barrier (radioactivity in the brain)” value is “does not cross the blood-brain barrier (BBB) in mice either”. The magnitude of catabolism entry (mice, bone accumulation at 60 min post injection) was “negligible”. Under “mice, muscle as reference tissue”, the “increased binding and accumulation in MCF10DCIS, as compared to normal breast tissue and muscle (Logan graphical analysis)” value was 2-3 fold. Also, the renal clearance result (mice, radioactivity in the bladder) is listed as “more active in mice, as compared with rats”. Moreover, where the note is “tumor-bearing mice, i.v.”, the route of excretion entry was “predominantly via the hepatobiliary route of excretion”. Also, under setting [1], the “blood fast clearance half-time” value is roughly 0.5 min and the “blood slow clearance half-time” value was roughly 10.5 min. Moreover, under setting [2], the kidney clearance half-time came out at 37 min and the liver clearance half-time is listed as roughly 120 min.
